The source of these data is US20140314857A1, “FORMULATIONS FOR ENHANCED BIOAVAILABILITY OF ZANAMIVIR” (priority 2012, published 2014).

In general, Tmax refers to the time at which the peak concentration occurs.

The nature of the data set: Varying zanamivir levels at fixed 50 µL Capmul MCM L8, intraduodenal administration. In kind it is in vivo, male Sprague-Dawley rats. The note with it: male, Sprague-Dawley, rat, plasma, ID. An excerpt: Male Sprague-Dawley rats (Hilltop Labs), 3 animals per treatment group, 250-350 grams in weight, were fitted with a jugular vein cannula (JVC). Animals intended for intraduodenal dosing were also fitted with one or more intraduodenal cannula (IDC) and those intended for intravenous dosing were fitted with a second JVC. Food was withheld from the animals for a minimum of twelve hours prior to test article administration and was returned approximately four hours post-dose. Water was supplied ad libitum.
Intravenous dosing was conducted by the injection of 1.5 mg of zanamivir in 200 μL of PBS through a JVC. For some experiments, the absorption enhancer was administered intraduodenally 2 hr prior to administering 1.5 mg of zanamivir in PBS through a second IDC. Each intraduodenal dose was followed with the introduction of a small air bubble (˜10 μL) in the cannula followed by a flush of 125 μL of PBS to ensure the dose was given in full. The volume of PBS used for cannula flush was consistent across the treatment groups. The cannula was tied to prevent the PBS remaining in the cannula from entering the duodenum.
Blood samples collected via the JVC, approximately 400 μL each, were obtained at 2 min, 5 min, 15 min, 30 min, 60 min, 90 min, and 120 min, with sodium heparin used as an anti-coagulant. Each sample was placed into a chilled tube containing the anticoagulant and kept on ice until centrifugation at 4° C., 3,000×g, for 5 min. The plasma supernatants were stored at −70° C. until LC-MS analysis.

On to `CC(=O)NC1C(NC(=N)N)C=C(C(=O)O)OC1C(O)C(O)CO` (stereo not drawn) [Zanamivir, 5-acetamido-4-guanidino-6-(1,2,3-trihydroxypropyl)-5,6-dihydro-4H-pyran-2-carboxylic acid], for which the time of peak concentration (Tmax) (0.75 mg zanamivir in 50 µL Capmul MCM L8) was found to be 4.8 min, the time of peak concentration (Tmax) (1.5 mg zanamivir in 50 µL Capmul MCM L8) stood at 4.8 min and the Tmax (3.0 mg zanamivir in 50 µL Capmul MCM L8) stood at 8.4 min.
